Laboratory results reported in PubChem BioAssay (NCI).
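The compound was tested at five concentrations on cells cultured in 96-well plates, with a 48-hour exposure period. Here, GI50 denotes the concentration required for 50% inhibition of growth. At the TGI there is no net growth.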

Assays:
Experiment in all cases: NCI anticancer screen, dose series, 48 h
[1] = test system: EKVX NSCLC
[2] = test system: UACC-257 melanoma
[3] = test system: HL-60(TB) leukemia
[4] = test system: SK-MEL-2 melanoma
[5] = test system: SN12C renal
[6] = test system: NCI/ADR-RES ovarian
[7] = test system: HT29 colon
[8] = test system: KM12 colon
[9] = test system: MDA-MB-435
[10] = test system: SF-539 CNS
[11] = test system: MCF7 breast
[12] = test system: HCT-116 colon
[13] = test system: HS 578T breast
[14] = test system: SNB-75 CNS
[15] = test system: 786-0 renal
[16] = test system: SK-OV-3 ovarian
[17] = test system: DU-145 prostate
[18] = test system: OVCAR-5 ovarian
[19] = test system: SF-295 CNS
[20] = test system: A498 renal
[21] = test system: T-47D breast
[22] = test system: HCT-15 colon
[23] = test system: M14 melanoma
[24] = test system: UACC-62 melanoma
[25] = test system: MALME-3M melanoma
[26] = test system: A549 NSCLC
[27] = test system: HCC-2998 colon
[28] = test system: CCRF-CEM leukemia
[29] = test system: COLO 205 colon
[30] = test system: NCI-H226 lung

C=C1CCC2C3(C)COC(c4ccccc4F)OC3CCC2(C)C1CC(O)C1=CCOC1=O (centres undefined)
GI50 [1]: 87.7 µM | TGI [1]: > 100 µM | GI50 [2]: 20 µM | TGI [2]: > 100 µM | GI50 [3]: 5.66 µM | TGI [3]: > 100 µM | GI50 [4]: 14.6 µM | TGI [4]: 29.1 µM | GI50 [5]: 6.14 µM | TGI [5]: 92.5 µM | GI50 [6]: 8.93 µM | TGI [6]: 25.3 µM | GI50 [7]: 13.3 µM | TGI [7]: 52.6 µM | GI50 [8]: 17.7 µM | TGI [8]: > 100 µM | GI50 [9]: 12.6 µM | TGI [9]: 46.9 µM | GI50 [10]: 14.9 µM | TGI [10]: 28.3 µM | GI50 [11]: 3.48 µM | TGI [11]: 20.2 µM | GI50 [12]: 4.3 µM | TGI [12]: 17.2 µM | GI50 [13]: 28.1 µM | TGI [13]: > 100 µM | GI50 [14]: 6.89 µM | TGI [14]: 26.1 µM | GI50 [15]: 16.7 µM | TGI [15]: 32.8 µM | GI50 [16]: 37.1 µM | TGI [16]: > 100 µM | GI50 [17]: 28.9 µM | TGI [17]: > 100 µM | GI50 [18]: 16.3 µM | TGI [18]: 50.8 µM | GI50 [19]: 15.9 µM | TGI [19]: 44.9 µM | GI50 [20]: 23.5 µM | TGI [20]: 77.2 µM | GI50 [21]: 10.7 µM | TGI [21]: > 100 µM | GI50 [22]: 9.51 µM | TGI [22]: 33.5 µM | GI50 [23]: 30 µM | TGI [23]: > 100 µM | GI50 [24]: 15.9 µM | TGI [24]: 46 µM | GI50 [25]: 22.5 µM | TGI [25]: 68.4 µM | GI50 [26]: 24.4 µM | TGI [26]: > 100 µM | GI50 [27]: 25.3 µM | TGI [27]: > 100 µM | GI50 [28]: 3.08 µM | TGI [28]: > 100 µM | GI50 [29]: 19.3 µM | TGI [29]: 55.9 µM | GI50 [30]: 5.74 µM
